We go through three molecules from patent US20200171162A1, “E-POLY-L-LYSINE DERIVATIVES HAVING FUNCTIONAL GROUP FOR CLICK CHEMISTRY, METHOD FOR PRODUCING THE SAME, AND USE THEREOF” (Fukui Prefectural University, priority 2017, published 2020).

A short description of one data set: physchem. The method, then: A commercial DBCO-PEG4-5/6-FAM represented by formula (12) (0.5 μmol) and a 9- to 18-mer ε-PL-PEG-azide represented by the general formula (10) (wherein n is an integer of 9 to 18) (1.0 μmol) were dissolved in 80% dimethylsulfoxide (hereinafter referred to as DMSO). The mixture was subjected to a click chemistry reaction while stirred at 30° C. for 24 hours. The reaction mixture was analyzed by ESI-TOF-MS/HPLC as described in Example 1.

A further data set has as its system HeLa cells. The data set can be described thus: Biomembrane permeability test using HeLa cells (fluorescence intensity of cell extract). The class given is cell-based. Particulars: statement for the unmodified dye.
The test system of data set [1] is human chronic myelogenous leukemia K562 cells. The data set can be described thus: Cytotoxicity (anticancer activity), MTT assay. Format: cell-based. The following applies: 48 hours. The method, then: (§1) The culture of K562 cells and K562/ADR cells was performed in an RPMI1640 medium containing 10% fetal bovine serum (FBS) in an atmosphere of 5% carbon dioxide at 37° C. The cells were suspended at 1×10^5 cells/mL in the medium, and 100 μL (1×10^4 cells) of the cell suspension was seeded on each well of 96-well plates and cultured for 24 hours. […] MTT assay was performed to determine cytotoxicity based on viable cell count.

Data set [2] relates to Dox-resistant K562 cells (K562/ADR). The data set can be described thus: Cytotoxicity (anticancer activity), MTT assay. Particulars: Homo sapiens, 48 hours. Format: cell-based. The method, then: as §1
(Tetrazolium assays rely on reduction of a dye to a coloured formazan, in cell work by metabolically active cells.)

The solubility is the concentration that dissolves in the medium under given conditions. One may read the IC50 as the point on the concentration scale where inhibition reaches its midpoint. A higher IC50 goes with weaker potency in that assay.

Description for HeLa cells: The culture of HeLa cells was performed in a Dulbecco's modified Eagle's medium (DMEM) containing 10% fetal bovine serum (FBS) in an atmosphere of 5% carbon dioxide at 37° C. Under such culture conditions, the cells were cultured in 12-well plates until grown to 70 to 80% confluency. The cells were washed twice with DMEM without FBS (DMEM w/o FBS). […] Incubation was performed at 4° C. for 30 minutes. The cells were washed successively with phosphate buffered saline (PBS) twice, with PBS alone or PBS containing heparin (100 μg/mL), and with PBS twice. To the cells, 300 μL of 100 mM Tris-HCl buffer solution (pH 8.0) containing 1% Triton X-100 was added for extraction of the compound taken up by the cells. After removing the insoluble fraction by centrifugation, fluorescence intensity was measured.
The culture of HeLa cells was performed in a Dulbecco's modified Eagle's medium (DMEM) containing 10% fetal bovine serum (FBS) in an atmosphere of 5% carbon dioxide at 370° C. Under such culture conditions, the cells were cultured in 12-well plates until grown to 70 to 80% confluency. The cells were washed twice with DMEM without FBS (DMEM w/o FBS). […] Incubation was performed at 4° C. for 30 minutes. […] After removing the insoluble fraction by centrifugation, fluorescence intensity was measured.

Take `C[C@@H]1[C@H](O)[C@@H](C)/C=C/C=C/C=C/C=C/C=C/C=C/C=C/[C@H](O[C@@H]2O[C@H](C)[C@@H](O)[C@H](N)[C@@H]2O)C[C@@H]2O[C@](O)(C[C@@H](O)C[C@@H](O)[C@H](O)CC[C@@H](O)C[C@@H](O)CC(=O)O[C@H]1C)C[C@H](O)[C@H]2C(=O)O` [AmpB, amphotericin B]: in “physchem” (water), the solubility is < 1080 µM.
Turning to `O=C(CCOCCOCCOCCOCCNC(=O)c1ccc(-c2c3ccc(=O)cc-3oc3cc(O)ccc23)c(C(=O)O)c1)NCCC(=O)N1Cc2ccccc2C#Cc2ccccc21` [DBCO-PEG4-5/6-FAM], the water solubility entry in “physchem” is on record as “poorly water-soluble”. The biomembrane permeability result in the data set with HeLa cells is “no biomembrane permeability”.
For `COc1cccc2c1C(=O)c1c(O)c3c(c(O)c1C2=O)C[C@@](O)(C(=O)CO)C[C@@H]3O[C@H]1C[C@H](N)[C@H](O)[C@H](C)O1` [Dox, doxorubicin], the IC50 in data set [1] turned out to be 239 ± 72 nM; in data set [2] it was 1040 nM.
